In US6472348B1, “Pyridone derivatives and herbicides” (Kumiai Chemical Industry Co., Ltd., priority 1996, dated 2002):

Columns and labels:
barnyardgrass (Ec) [1] = assay: Test Example 1: herbicidal effects by paddy field soil treatment; type: in vivo; conditions: 100 g of the active ingredient per 10 ares, 21st day after the application, index 0-5 of Table 47;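 also: grade of growth control; 5 = at least 90%; 4 = 70 to 90%; 3 = 50 to 70%; 2 = 30 to 50%; 1 = 10 to 30%; 0 = under 10%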
Procedure, shortened: (§1)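 Scoring of herbicidal effect came 21 days after application of 100 g active ingredient per 10 ares to flooded (3 cm) paddy-soil pots sown with barnyardgrass, monochoria and bulrush, kept in a greenhouse.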

bulrush (Sc) = assay: as above; type: in vivo; conditions: 100 g of the active ingredient per 10 ares, 21st day after the application, index 0-5 of Table 47;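 also: grade of growth control; 5 = at least 90%; 4 = 70 to 90%; 3 = 50 to 70%; 2 = 30 to 50%; 1 = 10 to 30%; 0 = under 10%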
Procedure, shortened: as §1

monochoria (Mo) = assay: as above; type: in vivo; conditions: 100 g of the active ingredient per 10 ares, 21st day after the application, index 0-5 of Table 47;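 also: grade of growth control; 5 = at least 90%; 4 = 70 to 90%; 3 = 50 to 70%; 2 = 30 to 50%; 1 = 10 to 30%; 0 = under 10%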
Procedure, shortened: as §1

Digitaria ciliaris (Di) = assay: Test Example 2: herbicidal effects by upland field soil treatment; type: in vivo; conditions: 100 g of the active ingredient per 10 ares;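 also: grade of growth control; 5 = at least 90%; 4 = 70 to 90%; 3 = 50 to 70%; 2 = 30 to 50%; 1 = 10 to 30%; 0 = under 10%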
Text: (§2) (Test on Herbicidal Effects by Upland Field Soil Treatment)

barnyardgrass (Ec) [2] = assay: as above; type: in vivo; conditions: 100 g of the active ingredient per 10 ares
Text: as §2

[3] = tested on: common lambsquarters (Ch); assay: as above; type: in vivo; conditions: 100 g of the active ingredient per 10 ares
Text: as §2

pale smartweed (Po) [4] = assay: as above; type: in vivo; conditions: 100 g of the active ingredient per 10 ares
Text: as §2

rice flatsedge (Ci) [5] = assay: as above; type: in vivo; conditions: 100 g of the active ingredient per 10 ares
Text: as §2

slender amaranth (Am) [6] = assay: as above; type: in vivo; conditions: 100 g of the active ingredient per 10 ares
Text: as §2

Diaitaria ciliaris (Di) = assay: Test Example 3: herbicidal effects by upland field foliage treatment; type: in vivo; parameters: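 grade of growth control; 5 = at least 90%; 4 = 70 to 90%; 3 = 50 to 70%; 2 = 30 to 50%; 1 = 10 to 30%; 0 = under 10%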
Procedure, shortened: (§3)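 Weeds sown in sand-filled pots and grown 2 weeks in a greenhouse before foliage treatment. Plants then kept in the greenhouse; herbicidal effect scored on day 14 after treatment against a graded standard scale.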

barnyardgrass (Ec) [7] = assay: as above; type: in vivo; parameters: scale not given here
Procedure, shortened: as §3

[8] = tested on: common lambsquarters (Ch); assay: as above; type: in vivo; parameters: scale not given here
Procedure, shortened: as §3

pale smartweed (Po) [9] = assay: as above; type: in vivo; parameters: scale not given here
Procedure, shortened: as §3

rice flatsedge (Ci) [10] = assay: as above; type: in vivo; parameters: scale not given here
Procedure, shortened: as §3

slender amaranth (Am) [11] = assay: as above; type: in vivo; parameters: scale not given here
Procedure, shortened: as §3

wheat (Tr) [12] = assay: Test Example 9: crop plant selectivity by upland field foliage treatment (wheat), phytotoxicity; conditions: dose 1.6 g ai/10a, 14th day after treatment
Protocol: (§4) (Test on Crop Plant Selectivity by Upland Field Foliage Treatment)
(§5) In a plastic pot (surface area: 600 cm^2) filled with sand, wheat (Tr), pale smartweed (Po), slender amaranth (Am), common lambsquarters (Ch) and China jute (Ab) were sown and cultured in a green house for 2 weeks. […] The plants were then cultured in a green house, and the evaluation of the herbicidal effects and phytotoxicity was conducted on the 14th day after the treatment in accordance with the standards as identified in Table 47.

China jute (Ab) [13] = assay: Test Example 9: crop plant selectivity by upland field foliage treatment (wheat), herbicidal effects; type: in vivo; parameters: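 grade of growth control; 5 = at least 90%; 4 = 70 to 90%; 3 = 50 to 70%; 2 = 30 to 50%; 1 = 10 to 30%; 0 = under 10%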; conditions: dose 1.6 g ai/10a, 14th day after treatment
Protocol: as §4, §5

[14] = tested on: common lambsquarters (Ch); assay: as above; type: in vivo; parameters: scale not given here; conditions: dose 1.6 g ai/10a, 14th day after treatment
Protocol: as §4, §5

pale smartweed (Po) [15] = assay: as above; type: in vivo; parameters: scale not given here; conditions: dose 1.6 g ai/10a, 14th day after treatment
Protocol: as §4, §5

slender amaranth (Am) [16] = assay: as above; type: in vivo; parameters: scale not given here; conditions: dose 1.6 g ai/10a, 14th day after treatment
Protocol: as §4, §5

cotton (Go) = assay: Test Example 4: crop plant selectivity by upland field soil treatment (cotton), phytotoxicity; type: in vivo; parameters: scale not given here; conditions: evaluated 21st day after application
Protocol: (§6) (Test on Crop Plant Selectivity by Upland Field Soil Treatment)
(§7) In a plastic pot (surface area: 600 cm^2) filled with sand, cotton (Go), Diaitaria ciliaris (Di), green foxtail (Se), pale smartweed (Po), slender amaranth (Am), common lambsquarters (Ch) and China jute (Ab) were sown and covered with soil. […] The plants were then cultured in a green house, and the evaluation of the herbicidal effects and phytotoxicity was conducted on the 21st day after the application in accordance with the standards as identified in Table 47. Symbol—represents “not tested”.

China jute (Ab) [17] = assay: Test Example 4: crop plant selectivity by upland field soil treatment (cotton), herbicidal effects; type: in vivo; parameters: scale not given here; conditions: evaluated 21st day after application
Protocol: as §6, §7

[18] = tested on: common lambsquarters (Ch); assay: as above; type: in vivo; parameters: scale not given here; conditions: evaluated 21st day after application
Protocol: as §6, §7

green foxtail (Se) [19] = assay: as above; type: in vivo; parameters: scale not given here; conditions: evaluated 21st day after application
Protocol: as §6, §7

pale smartweed (Po) [20] = assay: as above; type: in vivo; parameters: scale not given here; conditions: evaluated 21st day after application
Protocol: as §6, §7

slender amaranth (Am) [21] = assay: as above; type: in vivo; parameters: scale not given here; conditions: evaluated 21st day after application
Protocol: as §6, §7

wheat (Tr) [22] = assay: Test Example 5: crop plant selectivity by upland field soil treatment (wheat), phytotoxicity; type: in vivo; parameters: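 grade of crop injury; 5 = at least 90%; 4 = 70 to 90%; 3 = 50 to 70%; 2 = 30 to 50%; 1 = 10 to 30%; 0 = under 10%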; conditions: dose 1.6 g ai/10a, 21st day after application
Protocol: as §6
(§8) In a plastic pot (surface area: 600 cm^2) filled with sand, wheat (Tr), Diaitaria ciliaris (Di), green foxtail (Se), pale smartweed (Po), slender amaranth (Am), common lambsquarters (Ch) and China jute (Ab) were sown and covered with soil. […] The plants were then cultured in a green house, and the evaluation of the herbicidal effects and phytotoxicity was conducted on the 21st day after the application in accordance with the standards as identified in Table 47. Symbol—represents “not tested”.

China jute (Ab) [23] = assay: Test Example 5: crop plant selectivity by upland field soil treatment (wheat), herbicidal effects; type: in vivo; parameters: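 grade of growth control; 5 = at least 90%; 4 = 70 to 90%; 3 = 50 to 70%; 2 = 30 to 50%; 1 = 10 to 30%; 0 = under 10%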; conditions: dose 1.6 g ai/10a, 21st day after application
Protocol: as §6, §8

[24] = tested on: common lambsquarters (Ch); assay: as above; type: in vivo; parameters: scale not given here; conditions: dose 1.6 g ai/10a, 21st day after application
Protocol: as §6, §8

green foxtail (Se) [25] = assay: as above; type: in vivo; parameters: scale not given here; conditions: dose 1.6 g ai/10a, 21st day after application
Protocol: as §6, §8

pale smartweed (Po) [26] = assay: as above; type: in vivo; parameters: scale not given here; conditions: dose 1.6 g ai/10a, 21st day after application
Protocol: as §6, §8

slender amaranth (Am) [27] = assay: as above; type: in vivo; parameters: scale not given here; conditions: dose 1.6 g ai/10a, 21st day after application
Protocol: as §6, §8

[28] = evaluated on the 21st day after application
[29] = 100 g active ingredient per 10 ares, evaluated 14th day after treatment
[30] = 21st day after the application, index 0-5 of Table 47
[31] = 100 g of the active ingredient per 10 ares, evaluated on the 14th day after treatment

CC(Br)c1cc2c(-c3ccc(C(F)(F)F)n(C)c3=O)c(F)cc(Cl)c2o1 (centres unmarked) [Compound 4-34]
Herbicidal effects Ec (barnyardgrass (Ec) [1]): 5
Herbicidal effects Sc (bulrush (Sc)): 5
Herbicidal effects Mo (monochoria (Mo)): 5
Herbicidal effects Di (Digitaria ciliaris (Di); [28]): 5
Herbicidal effects Ec (barnyardgrass (Ec) [2]; [28]): 5
Herbicidal effects Ch [3, 28]: 5
Herbicidal effects Po (pale smartweed (Po) [4]; [28]): 5
Herbicidal effects Ci (rice flatsedge (Ci) [5]; [28]): 5
Herbicidal effects Am (slender amaranth (Am) [6]; [28]): 5
Herbicidal effects Di (Diaitaria ciliaris (Di); [29]): 5
Herbicidal effects Ec (barnyardgrass (Ec) [7]; [29]): 5
Herbicidal effects Ch [8, 29]: 5
Herbicidal effects Po (pale smartweed (Po) [9]; [29]): 5
Herbicidal effects Ci (rice flatsedge (Ci) [10]; [29]): 5
Herbicidal effects Am (slender amaranth (Am) [11]; [29]): 5
Phytotoxicity Tr (wheat (Tr) [12]): 2
Herbicidal effects Ab (China jute (Ab) [13]): 5
Herbicidal effects Ch [14]: 5
Herbicidal effects Po (pale smartweed (Po) [15]): 5
Herbicidal effects Am (slender amaranth (Am) [16]): 5

COC(C)c1cc2c(-c3ccc(C(F)(F)F)n(C)c3=O)c(F)cc(Cl)c2o1 (centres unmarked) [Compound 4-35]
Herbicidal effects Di (Digitaria ciliaris (Di); [28]): 5
Herbicidal effects Ec (barnyardgrass (Ec) [2]; [28]): 5
Herbicidal effects Ch [3, 28]: 5
Herbicidal effects Po (pale smartweed (Po) [4]; [28]): 5
Herbicidal effects Ci (rice flatsedge (Ci) [5]; [28]): 5
Herbicidal effects Am (slender amaranth (Am) [6]; [28]): 5
Herbicidal effects Di (Diaitaria ciliaris (Di); [29]): 5
Herbicidal effects Ec (barnyardgrass (Ec) [7]; [29]): 5
Herbicidal effects Ch [8, 29]: 5
Herbicidal effects Po (pale smartweed (Po) [9]; [29]): 5
Herbicidal effects Ci (rice flatsedge (Ci) [10]; [29]): 5
Herbicidal effects Am (slender amaranth (Am) [11]; [29]): 5
Phytotoxicity Tr (wheat (Tr) [12]): 2
Herbicidal effects Ab (China jute (Ab) [13]): 5
Herbicidal effects Ch [14]: 5
Herbicidal effects Po (pale smartweed (Po) [15]): 5
Herbicidal effects Am (slender amaranth (Am) [16]): 5

CCOC(C)c1cc2c(-c3ccc(C(F)(F)F)n(C)c3=O)c(F)cc(Cl)c2o1 (centres unmarked) [Compound 4-36]
Herbicidal effects Di (Digitaria ciliaris (Di); [28]): 5
Herbicidal effects Ec (barnyardgrass (Ec) [2]; [28]): 5
Herbicidal effects Ch [3, 28]: 5
Herbicidal effects Po (pale smartweed (Po) [4]; [28]): 5
Herbicidal effects Ci (rice flatsedge (Ci) [5]; [28]): 5
Herbicidal effects Am (slender amaranth (Am) [6]; [28]): 5
Herbicidal effects Di (Diaitaria ciliaris (Di); [29]): 5
Herbicidal effects Ec (barnyardgrass (Ec) [7]; [29]): 5
Herbicidal effects Ch [8, 29]: 5
Herbicidal effects Po (pale smartweed (Po) [9]; [29]): 5
Herbicidal effects Ci (rice flatsedge (Ci) [10]; [29]): 5
Herbicidal effects Am (slender amaranth (Am) [11]; [29]): 5
Phytotoxicity Tr (wheat (Tr) [12]): 2
Herbicidal effects Ab (China jute (Ab) [13]): 5
Herbicidal effects Ch [14]: 5
Herbicidal effects Po (pale smartweed (Po) [15]): 5
Herbicidal effects Am (slender amaranth (Am) [16]): 5

CCC(OC)c1cc2c(-c3ccc(C(F)(F)F)n(C)c3=O)c(F)cc(Cl)c2o1 (centres unmarked) [Compound 4-39]
Phytotoxicity Tr (wheat (Tr) [12]): 2
Herbicidal effects Ab (China jute (Ab) [13]): 5
Herbicidal effects Ch [14]: 5
Herbicidal effects Po (pale smartweed (Po) [15]): 5
Herbicidal effects Am (slender amaranth (Am) [16]): 5

Cn1c(C(F)(F)F)ccc(-c2cc(Oc3ncccn3)c(Cl)cc2F)c1=O [Compound No. 1-27]
Herbicidal effects Ec (barnyardgrass (Ec) [1]): 5
Herbicidal effects Sc (bulrush (Sc)): 5
Herbicidal effects Mo (monochoria (Mo)): 5
Herbicidal effects Di (Digitaria ciliaris (Di); [30]): 5
Herbicidal effects Ec (barnyardgrass (Ec) [2]; [30]): 5
Herbicidal effects Ch [3, 30]: 5
Herbicidal effects Po (pale smartweed (Po) [4]; [30]): 5
Herbicidal effects Ci (rice flatsedge (Ci) [5]; [30]): 5
Herbicidal effects Am (slender amaranth (Am) [6]; [30]): 5
Herbicidal effects Di (Diaitaria ciliaris (Di); [31]): 5
Herbicidal effects Ec (barnyardgrass (Ec) [7]; [31]): 5
Herbicidal effects Ch [8, 31]: 5
Herbicidal effects Po (pale smartweed (Po) [9]; [31]): 5
Herbicidal effects Ci (rice flatsedge (Ci) [10]; [31]): 5
Herbicidal effects Am (slender amaranth (Am) [11]; [31]): 5
Phytotoxicity Go (cotton (Go); dose 1.6 g ai/10 a): 1
Phytotoxicity Go (cotton (Go); dose 6.3 g ai/10 a): 1
Herbicidal effects Ab (China jute (Ab) [17]; dose 1.6 g ai/10 a): 5
Herbicidal effects Ab (China jute (Ab) [17]; dose 6.3 g ai/10 a): 5
Herbicidal effects Ch ([18]; dose 1.6 g ai/10 a): 5
Herbicidal effects Ch ([18]; dose 6.3 g ai/10 a): 5
Herbicidal effects Se (green foxtail (Se) [19]; dose 1.6 g ai/10 a): 5
Herbicidal effects Se (green foxtail (Se) [19]; dose 6.3 g ai/10 a): 5
Herbicidal effects Po (pale smartweed (Po) [20]; dose 1.6 g ai/10 a): 5
Herbicidal effects Po (pale smartweed (Po) [20]; dose 6.3 g ai/10 a): 5
Herbicidal effects Am (slender amaranth (Am) [21]; dose 1.6 g ai/10 a): 5
Herbicidal effects Am (slender amaranth (Am) [21]; dose 6.3 g ai/10 a): 5
Phytotoxicity Tr (wheat (Tr) [22]): 1
Herbicidal effects Ab (China jute (Ab) [23]): 5
Herbicidal effects Ch [24]: 5
Herbicidal effects Se (green foxtail (Se) [25]): 5
Herbicidal effects Po (pale smartweed (Po) [26]): 5
Herbicidal effects Am (slender amaranth (Am) [27]): 5
